Literature values, collected in patent publication US20220056154A1, “Bispecific Antibody Compositions and Methods for Treating COVID-19” (priority 2020, published 2022).

Target: hACE2 (Homo sapiens, UniProt Q9BYF1)
Details: 10 μM lisinopril, 10 μM captopril, 10 μM enalaprilat, 100 μM benzyl succinate, 10 mM EDTA; 100 μM angiotensin II; 37° C., 2 hours

Sequence of hACE2 (Q9BYF1 18-805): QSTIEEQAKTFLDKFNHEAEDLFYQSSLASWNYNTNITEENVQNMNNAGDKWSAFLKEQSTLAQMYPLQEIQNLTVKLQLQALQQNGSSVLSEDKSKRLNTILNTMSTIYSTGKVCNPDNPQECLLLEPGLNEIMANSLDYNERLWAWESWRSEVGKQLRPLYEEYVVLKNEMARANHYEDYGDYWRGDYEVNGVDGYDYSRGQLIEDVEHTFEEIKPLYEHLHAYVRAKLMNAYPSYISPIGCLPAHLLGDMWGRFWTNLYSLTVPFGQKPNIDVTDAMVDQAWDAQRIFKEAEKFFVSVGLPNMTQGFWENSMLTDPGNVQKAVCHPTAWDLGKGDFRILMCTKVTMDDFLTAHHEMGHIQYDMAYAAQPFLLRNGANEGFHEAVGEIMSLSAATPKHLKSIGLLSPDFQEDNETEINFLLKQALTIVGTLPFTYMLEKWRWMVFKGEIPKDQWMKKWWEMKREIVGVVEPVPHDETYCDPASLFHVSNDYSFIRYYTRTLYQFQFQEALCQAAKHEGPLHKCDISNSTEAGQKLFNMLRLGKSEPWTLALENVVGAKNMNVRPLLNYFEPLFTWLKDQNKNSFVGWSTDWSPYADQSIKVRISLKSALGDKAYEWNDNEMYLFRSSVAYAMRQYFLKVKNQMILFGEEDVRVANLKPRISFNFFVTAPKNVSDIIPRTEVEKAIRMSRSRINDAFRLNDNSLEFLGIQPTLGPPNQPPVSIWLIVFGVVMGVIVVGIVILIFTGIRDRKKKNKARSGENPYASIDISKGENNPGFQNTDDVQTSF

| Compound | inhibition of hACE2 activity (angiotensin II cleavage) |
| --- | --- |
| O=C(O)CN(CCN(CC(=O)O)CC(=O)O)CC(=O)O [EDTA] | inhibits hACE2 activity |
| O=C(O)CC(Cc1ccccc1)C(=O)O (centres unmarked) [benzyl succinate] | none of lisinopril, captopril, enalaprilat, and benzyl succinate (a carboxypeptidase A inhibitor) inhibits hACE2 activity |
